Values joined by “and” are separate entries in the source; they are usually repeats but may differ in a detail not shown here. Equal entries are not always repeated.
How the values were obtained:
[1] = Pharmacokinetics of different salt forms of ocinaplon after a single oral dose; type: in vivo; details: male beagle dogs
Method: (§1) The test compounds were prepared in 0.5% methylcellulose. The target concentrations of the free base and HBr salt were 1.0 and 1.34 mg/mL (equivalent to 1 mg of the free base), respectively. The liquid suspensions were administered via oral gavage. Prior to removing the gavage tube, the tube was flushed with approximately 5 mL of water.
(§2) Blood (approximately 2 mL) was collected from a jugular vein via syringe and needle and transferred into tubes containing K2EDTA anticoagulant predose and at 0.5, 1, 2, 3, 4, 6, 8, 12, and 24 hours postdose. Blood was maintained on wet ice, in chilled Kryoracks, or at approximately 5° C. prior to centrifugation to obtain plasma. Centrifugation began within 1 hour of collection. Plasma was placed on dry ice prior to storage at approximately −70° C. Plasma samples, remaining test compounds, and remaining dose formulations were shipped on dry ice to the analysis site and stored at approximately −70° C. before and after analysis. Samples were analyzed using an LC/MS/MS method. Plasma concentration-time data for each dog and formulation were analyzed using a noncompartmental model assumption with WinNonlin, version 4.1 (Pharsight Corporation, Mountain View, Calif.). All calculations were based on the nominal times as actual sample collection times departed minimally from the schedule times.
The pharmacokinetic parameters of different pyrazolopyrimidine acid salts vary in an apparently salt and compound dependent fashion. This is illustrated by a comparison of the pharmacokinetic properties of different acid salts of the pyrazolopyrimidine, ocinaplon. This study was performed in a manner similar to the study described in Example 9 hereinabove. The concentrations of the HCl, HBr and disulfate salts of ocinaplon were 3.72 mg/mL, 4.61 mg/mL and 4.95 mg/mL, respectively. All concentrations were calculated to be 3.0 mg free base/mL; the dose volume was […]. […] […] These findings exemplify and underscore the differences in pharmacokinetic profiles among these three exemplary salts of ocinaplon.

[2] = Equilibrium aqueous solubility from solid; type: physicochemical; details: water, thermodynamic from solid, H20; room temperature overnight
Method: Samples of the ocinaplon salts shown above were evaluated for equilibrium aqueous solubility from solid. Duplicate samples of ocinaplon were accurately weighed and diluted to 1 ml with water to 6.83 mg/ml and 6.43 mg/ml. Duplicate samples of Ocinaplon di HCl salt were accurately weighed and diluted to 1 ml with water to 5.5 mg/ml and 6.0 mg/ml. Ocinaplon di HBr salt was accurately weighed and diluted to 1 ml with water to 6.1 mg/ml and 5.8 mg/ml. Ocinaplon disulfate salt was accurately weighed and diluted to 1 ml with water to 7.5 mg/ml and 6.5 mg/ml. Any change in pH of the water following sample addition was recorded. After equilibration at room temperature overnight the solutions were filtered and solute concentration determined by fast gradient HPLC with UV/VIS/MS detection with reference to 5, 10, 50, 100 and 250 μM analytical standards. Prior to sample filtration, filters were primed with 600 μl of sample to resolve potential adsorption problems. Both sample replicates were collected through the primed filter. Duplicate determinations were made in all cases.

[3] = Plasma pharmacokinetic comparison of zaleplon free base and HCl salt after single oral doses; type: in vivo; details: male beagle dogs; for Tmax / AUC(0-inf) / AUC(0-t) / Cmax: male, beagle, dog, plasma, po
[4] = Pharmacokinetics of indiplon after oral administration of free base or HBr co-crystal suspension; type: in vivo, male beagle dogs; details: male dogs; for AUC(0-t) / Cmax / Tmax: single oral dose 5 mg free base/kg, 0.5% methylcellulose suspension
Method: The purpose of this study was to determine the pharmacokinetics of indiplon following oral administration of the free base and the HBr co-crystal in a suspension to male beagle dogs.
The test compounds used in the study were the free base and […] of indiplon. The compounds were stored at approximately 2-8° C.
Five male purebred beagles were transferred to the study from a stock colony. Each animal was identified with an individually numbered ear tattoo. The animals were acclimated for 5 days. At the time of dose administration, animals were young adult/adult age. During acclimation and the test period, animals were individually housed in wire-mesh enclosures with coated rod-bottom floors. Animals were not comingled for at least 24 hours after each dose administration to allow monitoring of any test compound-related effects. Animals had access to non-certified Canine Diet #5L03 (PMI Feeds, Inc.) ad libitum, except as specified for dose administration.
as §1, §2

[5] = dog, plasma, 30 mg/kg, single oral dose 30 mg Base/kg, 0.5% methylcellulose suspension, mean (CV %), N = 5
[6] = male, beagle, dog, plasma, po, 30 mg/kg, single oral dose 30 mg Base/kg, 0.5% methylcellulose suspension, mean (CV %), N = 5
[7] = 5 mg/kg, single oral dose 5.0 mg Free Base/kg, Mean of 5 dogs
[8] = 5 mg/kg, single oral dose 5.0 mg Free Base/kg, dog CLT-2
[9] = 5 mg/kg, single oral dose 5.0 mg Free Base/kg, dog H0M004
[10] = 5 mg/kg, single oral dose 5.0 mg Free Base/kg, dog H1B108
[11] = 5 mg/kg, single oral dose 5.0 mg Free Base/kg, dog TDR2
[12] = 5 mg/kg, single oral dose 5.0 mg Free Base/kg, dog TKR-2
[13] = dog CTZBCG, listed as Free Base Suspension
[14] = dog CUPBEG, listed as Free Base Suspension
[15] = dog CUVBAT, listed as Free Base Suspension
[16] = 2.5 mg HCl Salt/kg, single oral dose 2.5 mg HCl Salt/kg, Mean of 5 dogs
[17] = 2.5 mg HCl Salt/kg, single oral dose 2.5 mg HCl Salt/kg, dog CLT-2
[18] = 2.5 mg HCl Salt/kg, single oral dose 2.5 mg HCl Salt/kg, dog H0M004
[19] = 2.5 mg HCl Salt/kg, single oral dose 2.5 mg HCl Salt/kg, dog H1B108
[20] = 2.5 mg HCl Salt/kg, single oral dose 2.5 mg HCl Salt/kg, dog TDR2
[21] = 2.5 mg HCl Salt/kg, single oral dose 2.5 mg HCl Salt/kg, dog TKR-2
[22] = Mean, N = 5, listed as HBr Salt Suspension
[23] = dog CUPBEG, listed as HBr Salt Suspension
[24] = dog CUVBAT, listed as HBr Salt Suspension
[25] = dog CVRCVX, listed as HBr Salt Suspension
[26] = dog CVSCCL, listed as HBr Salt Suspension

Cl.Cl.O=C(c1ccccn1)c1cnn2c(-c3ccncc3)ccnc12 [Ocinaplon di HCl salt]
Tmax [1, 5]: 66 min | half-life [1, 5]: 63 min | AUC of ocinaplon relative to an equivalent amount of the free base ([1]; oral 30 mg free base/kg): almost twice as high | Cmax of ocinaplon relative to an equivalent amount of the free base ([1]; oral 30 mg free base/kg): more than two-fold | variability in plasma levels of ocinaplon compared to the free base ([1]; oral 30 mg free base/kg): lower variability | variability in the AUC (CV %) compared to the free base ([1]; oral 30 mg free base/kg): much less variability | AUC(0-inf) [1, 6]: 57300 ng·h/mL | AUC(0-t) [1, 6]: 57100 ng·h/mL | Cmax [1, 6]: 15000 ng/mL | solubility [2]: 12600 µM and 4700 µg/mL

CCN(C(C)=O)c1cccc(-c2ccnc3c(C#N)cnn23)c1 [zaleplon free base, N-[3-(3-cyanopyrazolo[1,5-a]pyrimidin-7-yl)phenyl]-N-ethylacetamide, reference compound]
Tmax ([3]; 5 mg Free Base/kg, single oral dose 5.0 mg Free Base/kg, Mean of 5 dogs): 66 min | AUC(0-inf) [3, 7]: 6940 ng·h/mL | AUC(0-t) [3, 7]: 6700 ng·h/mL | Cmax [3, 7]: 1590 ng/mL | AUC(0-inf) [3, 8]: 6860 ng·h/mL | AUC(0-t) [3, 8]: 6840 ng·h/mL | Cmax [3, 8]: 1850 ng/mL | Tmax [3, 8]: 60 min | AUC(0-inf) [3, 9]: 7000 ng·h/mL | AUC(0-t) [3, 9]: 6930 ng·h/mL | Cmax [3, 9]: 1460 ng/mL | Tmax [3, 9]: 60 min | AUC(0-inf) [3, 10]: 3760 ng·h/mL | AUC(0-t) [3, 10]: 3760 ng·h/mL | Cmax [3, 10]: 926 ng/mL | Tmax [3, 10]: 120 min | AUC(0-inf) [3, 11]: 2550 ng·h/mL | AUC(0-t) [3, 11]: 2550 ng·h/mL | Cmax [3, 11]: 1100 ng/mL | Tmax [3, 11]: 30 min | AUC(0-inf) [3, 12]: 14500 ng·h/mL | AUC(0-t) [3, 12]: 13400 ng·h/mL | Cmax [3, 12]: 2630 ng/mL | Tmax [3, 12]: 60 min

CC(=O)N(C)c1cccc(-c2ccnc3c(C(=O)c4cccs4)cnn23)c1 [Indiplon free base, N-methyl-N-{3-[3-(thiophene-2-carbonyl)-pyrazolo[1,5-a]pyrimidin-7-yl]-phenyl}acetamide, reference compound]
AUC(0-t) ([4]; Mean, N = 5, listed as Free Base Suspension): 250 ng·h/mL | AUC(0-t) [4, 13]: 408 ng·h/mL | Cmax [4, 13]: 266 ng/mL | AUC(0-t) [4, 14]: 160 ng·h/mL | Cmax [4, 14]: 106 ng/mL | Tmax [4, 14]: 60 min | AUC(0-t) [4, 15]: 125 ng·h/mL | Cmax [4, 15]: 101 ng/mL | AUC(0-t) ([4]; dog CVSCCL, listed as Free Base Suspension): 277 ng·h/mL | Cmax ([4]; male, beagle, dog, plasma, po, 5 mg/kg, Mean, N = 5, read-out: Cmax): 185 ng/mL | Tmax ([4]; male, beagle, dog, plasma, po, 5 mg/kg, Mean, N = 5, read-out: Tmax): 36 min | Tmax ([4]; male, beagle, dog, plasma, po, 5 mg/kg, dog CUVBAT, read-out: Tmax): 30 min | AUC(0-t) ([4]; male, beagle, dog, plasma, po, 5 mg/kg, dog CVRCVX, read-out: AUC0-t): 279 ng·h/mL | Cmax ([4]; male, beagle, dog, plasma, po, 5 mg/kg, dog CVRCVX, read-out: Cmax): 212 ng/mL | Tmax ([4]; male, beagle, dog, plasma, po, 5 mg/kg, dog CVRCVX, read-out: Tmax): 30 min | Cmax ([4]; male, beagle, dog, plasma, po, 5 mg/kg, dog CVSCCL, read-out: Cmax): 240 ng/mL

CCN(C(C)=O)c1cccc(-c2ccnc3c(C#N)cnn23)c1.Cl [zaleplon HCl, Zaleplon Hydrochloride]
Cmax compared with the free base ([3]; oral, calculated on a mg/kg dosing basis): essentially equivalent | AUC(0-inf) [3, 16]: 2320 ng·h/mL | AUC(0-t) [3, 16]: 2310 ng·h/mL | Cmax [3, 16]: 790 ng/mL | Tmax [3, 16]: 33 min | AUC(0-inf) [3, 17]: 1820 ng·h/mL | AUC(0-t) [3, 17]: 1820 ng·h/mL | Cmax [3, 17]: 1010 ng/mL | Tmax [3, 17]: 15 min | AUC(0-inf) [3, 18]: 2010 ng·h/mL | AUC(0-t) [3, 18]: 2010 ng·h/mL | Cmax [3, 18]: 642 ng/mL | Tmax [3, 18]: 30 min | AUC(0-inf) [3, 19]: 1360 ng·h/mL | AUC(0-t) [3, 19]: 1360 ng·h/mL | Cmax [3, 19]: 587 ng/mL | Tmax [3, 19]: 60 min | AUC(0-inf) [3, 20]: 2650 ng·h/mL | AUC(0-t) [3, 20]: 2650 ng·h/mL | Cmax [3, 20]: 820 ng/mL | Tmax [3, 20]: 30 min | AUC(0-inf) [3, 21]: 3760 ng·h/mL | AUC(0-t) [3, 21]: 3720 ng·h/mL | Cmax [3, 21]: 896 ng/mL | Tmax [3, 21]: 30 min

CC(=O)N(C)c1cccc(-c2ccnc3c(C(=O)c4cccs4)cnn23)c1 [indiplon HBr, N-methyl-N-{3-[3-(thiophene-2-carbonyl)-pyrazolo[1,5-a]pyrimidin-7-yl]-phenyl}acetamide HBr cocrystal]
Tmax compared to the free base ([4]; oral 5 mg free base/kg): not remarkably different | increase in the AUC versus free base ([4]; oral 5 mg free base/kg): 226.8% | increase in the maximum plasma concentrations achieved (Cmax) versus free base ([4]; oral 5 mg free base/kg): 69.7% | test animals with pharmaceutical profile superior to the corresponding free base ([4]; oral 5 mg free base/kg, cross-over): 5 out of 5 | AUC(0-t) [4, 22]: 567 ng·h/mL | Cmax [4, 22]: 314 ng/mL | Tmax [4, 22]: 48 min | AUC(0-t) ([4]; dog CTZBCG, listed as HBr Salt Suspension): 1130 ng·h/mL | AUC(0-t) [4, 23]: 429 ng·h/mL | Cmax [4, 23]: 253 ng/mL | AUC(0-t) [4, 24]: 291 ng·h/mL | Cmax [4, 24]: 309 ng/mL | AUC(0-t) [4, 25]: 258 ng·h/mL | Cmax [4, 25]: 227 ng/mL | AUC(0-t) [4, 26]: 725 ng·h/mL | Cmax [4, 26]: 270 ng/mL | Tmax [4, 26]: 120 min | Cmax ([4]; male, beagle, dog, plasma, po, 5 mg/kg, dog CTZBCG, read-out: Cmax): 513 ng/mL | Tmax ([4]; male, beagle, dog, plasma, po, 5 mg/kg, dog CTZBCG, read-out: Tmax): 30 min | Tmax ([4]; male, beagle, dog, plasma, po, 5 mg/kg, dog CUPBEG, read-out: Tmax): 30 min

— US20080045547A1, “Salts And Co-Crystals of Pyrazolopyrimidine Compounds, Compositions Thereof And Methods For Their Production And Use” (priority 2006, published 2008)
